From PMC5359770 (ACS chemical biology, 2016)
Values belong to the compound of their own block, whether it stands above or below them.

How the values were obtained:
APT2 = APT2 (Homo sapiens, UniProt O95372); type: binding
[1] = cited from earlier work
[2] = target: APT2 triple mutant L78I/A85S/P86Q (Homo sapiens, UniProt O95372, A85S/L78I/P86Q); type: biochemical
APT2-L78I = APT2-L78I (Homo sapiens, UniProt O95372, L78I); settings: ResOAc substrate
APT2-L78I, sequence (O95372 whole entry L78I): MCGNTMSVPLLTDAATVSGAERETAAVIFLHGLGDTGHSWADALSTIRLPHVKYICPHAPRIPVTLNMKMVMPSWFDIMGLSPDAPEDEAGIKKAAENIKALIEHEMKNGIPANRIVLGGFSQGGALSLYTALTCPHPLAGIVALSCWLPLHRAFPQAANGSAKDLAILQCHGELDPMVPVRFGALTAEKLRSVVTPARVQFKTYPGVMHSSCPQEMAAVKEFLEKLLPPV

APT2, sequence (O95372 whole entry): as the sequence (O95372 whole entry L78I) above, with I78L counted along it
APT2 triple mutant L78I/A85S/P86Q, sequence (O95372 whole entry L78I/A85S/P86Q): as the sequence (O95372 whole entry L78I) above, with A85S, P86Q counted along it

Compound: CCCCCCCC/C=C\CCCCCCCC(=O)OC[C@@H](O)COP(=O)([O-])OCC[N+](C)(C)C [1-oleoyl-2-hydroxy-sn-glycero-3-phosphocholine]
- IC50 (APT2): 4.3 ± 0.4 µM

Compound: COc1ccc(N2CCN(C(=O)c3cc4c(s3)-c3ccccc3[S+]([O-])C4)CC2)cc1 (stereo not drawn) [ML349-sulfoxide]
- binding / inhibition of APT2 (in words) (APT2): some residual inhibition

- IC50 (APT2): 9.9 ± 0.6 µM
Compound: CCCCCCCC/C=C\CCCCCCCC(=O)O [oleic acid]
- critical micelle concentration (CMC) [1]: 6 µM

- potency (in words) [2]: improved ML348 potency
- Ki (APT2-L78I): 5.8 µM
Compound: ML348
